Source: patent US20180230097A1, “PROCESS FOR PREPARATION OF APREMILAST AND NOVEL POLYMORPHS THEREOF” (LUPIN LIMITED, priority 2015, published 2018)

Experiments:
[1] = Solubility of Form M in various media; assay type: physicochemical; conditions: water, hydrochloric acid, acetate Buffer, and phosphate Buffer at different pH
[2] = Polymorph stability under temperature/humidity storage (PXRD, FIG. 15 and 16); assay type: physicochemical; conditions: 25° C. to 40° C. temperature, 5% to 75% humidity (RH); FIG. 15 25° C./60% RH/2M, FIG. 16 40° C./75% RH/2M
Description: The term “stable” with respect polymorph or to a drug dosage form, refers to the chemical and physical integrity of the polymorph or dosage unit and, when appropriate, the ability of the dosage unit to maintain protection against microbiological contamination.
The Form M of apremilast is stable at different set of conditions such as 25° C. to 40° C. temperature, 5% to 75% humidity (RH) for durations as depicted in FIG. 15 and FIG. 16.
Using a PANalytical X'Pert powder diffraction meter, the x-ray powder diffraction pattern was measured at room temperature using a Cu Ka filled tube (45 kV 40 mA) as the x-ray source. Data collection was done in 2theta continuous scan mode in the range of 3.5° to 40°.

solubility in various medium [1]: good solubility
stability of polymorph [2]: stable
SMILES: CCOc1cc(C(CS(C)(=O)=O)N2C(=O)c3cccc(NC(C)=O)c3C2=O)ccc1OC (centres unmarked) [Form M]
